Experimental data from patent US11628160B2, “Compositions and methods for treating brain injury” (Azevan Pharmaceuticals, Inc., priority 2017, dated 2023).
Each block holds one compound with its values, some of them ahead of it.

Experiments:
human V1a receptor [1] = target: T1, human V1a receptor (Homo sapiens, UniProt P37288); assay: Inhibition of phosphatidylinositol turnover (V1a); format: cell-based; details: hV1a cells
T1 construct: host or cells: CHO cells
Source text: EXAMPLE. Inhibition of phosphatidylinositol turnover (V1a). The physiological effects of vasopressin are mediated through specific G-protein coupled receptors. The V1aR is coupled to the Gq/G11 family of G proteins and mediates phosphatidylinositol turnover. The agonist or antagonist character of the compounds of the invention may be determined by their ability to inhibit vasopressin-mediated turnover of phosphatidylinositol by the procedure described in the following paragraphs.
Cell culture and labeling of cells. Three days prior to the assay, near-confluent cultures of hV1a or hV1b cells were dissociated and seeded in 6-well tissue culture plates, about 100 wells being seeded from each 75 cm^2 flask (equivalent to 12:1 split ratio). Each well contained 1 mL of growth medium with 2 μCi of [^3H]myo-inositol (American Radiolabeled Chemicals, St. Louis, Mo., USA).
Incubations (V1a and V1b). All assays were in triplicate except for basal and 10 nM AVP (both n=6). AVP ((arginine vasopressin), Peninsula Labs, Belmont, Calif., USA (#8103)) was dissolved in 0.1N acetic acid. Test agents were dissolved in DMSO and diluted in DMSO to 200 times the final test concentration. […] The order of incubations was randomized. Incubations were initiated by removing the prelabeling medium, washing the monolayer once with 1 mL of 0.9% NaCl, and transferring the contents of the assay tubes to corresponding wells. The plates were incubated for 1 hour at 37° C. Incubations were terminated by removing the incubation medium and adding 500 μL of ice cold 5% (w/v) trichloroacetic acid and allowing the wells to stand for 15 min.
Measurement of [^3H]inositol phosphates (V1a and V1b). BioRad Poly-Prep Econo-Columns were packed with 0.3 mL of AG 1 X-8 100-200 formate form resin. Resin was mixed 1:1 with water and 0.6 mL added to each column. Columns were then washed with 10 mL water. Scintillation vials (20 mL) were placed under each column. For each well, the contents were transferred to a minicolumn, after which the well was washed with 0.5 mL distilled water, which was also added to the minicolumn. The columns were then washed twice with 5 mL of 5 mM myo-inositol to elute free inositol. Aliquots (1 mL) were transferred to 20 mL scintillation vials and 10 mL of Beckman Ready Protein Plus added. After the myo-inositol wash was complete, empty scintillation vials were placed under the columns, and [^3H]inositol phosphates were eluted with three additions of 1 mL 0.5 M ammonium formate containing 0.1 N formic acid. […] Inositol lipids were measured by adding 1 mL of 2% sodium dodecyl sulfate (SDS) to each well, allowing the wells to stand for at least 30 min., and transferring the solution to 20 mL scintillation vials, to which 10 mL Beckman Ready Protein Plus scintillation fluid was then added. Samples were counted in a Beckman LS 3801 liquid scintillation counter for 10 min. Total inositol incorporation for each well was calculated as the sum of free inositol, inositol phosphates, and inositol lipids.
Data analysis (V1a and V1b): concentration-inhibition experiments. Concentration-response curves for AVP and concentration-inhibition curves for test agents versus 10 nM AVP were analyzed by nonlinear least-squares curve-fitting to a 4-parameter logistic function. […] The curve-fitting was weighted under the assumption that the standard deviation was proportional to dpm of radioactivity. […]

Pharmacokinetics = format: in vivo; details: b.i.d. dosing
Source text: EXAMPLE. Pharmacokinetics. Compounds described herein are rapidly absorbed after oral administration. Compounds described herein cross the blood-brain-barrier and achieve therapeutically effective concentrations in the CNS. Compounds described herein may be dosed according to a wide variety of protocols, including but not limited to q.d., b.i.d., and the like.

V2 = V2 (Homo sapiens, UniProt P30518); assay: V2 receptor inhibition data (Ki); format: binding; details: selectivity table
V1b receptor = target: T2, V1b receptor (Homo sapiens, UniProt P47901); assay: Human or rat vasopressin V1b cell-based receptor binding assay; details: selectivity table; read-out: inhibition data Ki, V1b
T2 construct: expressed in transfected cells; host or cells: CHO-K1 (ATCC), vector PCI-neo
T2 sequence (P47901 1-424): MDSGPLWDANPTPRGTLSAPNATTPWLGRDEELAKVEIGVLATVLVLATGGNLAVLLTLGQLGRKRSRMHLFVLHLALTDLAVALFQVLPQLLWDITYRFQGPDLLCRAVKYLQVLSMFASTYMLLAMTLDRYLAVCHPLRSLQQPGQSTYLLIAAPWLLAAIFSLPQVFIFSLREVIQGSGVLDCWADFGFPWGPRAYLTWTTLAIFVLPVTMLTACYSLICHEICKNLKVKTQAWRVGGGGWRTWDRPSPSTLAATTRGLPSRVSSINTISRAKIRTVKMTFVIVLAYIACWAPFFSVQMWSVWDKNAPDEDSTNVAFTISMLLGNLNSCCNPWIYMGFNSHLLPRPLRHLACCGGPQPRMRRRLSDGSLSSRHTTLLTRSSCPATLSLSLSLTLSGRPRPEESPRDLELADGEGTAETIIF
Source text: EXAMPLE. Human vasopressin V1b receptor-expressing cells. Human vasopressin receptor 1b (hV1b) cDNA (see, Lolait et al., “Extrapituitary expression of the rat V1b vasopressin receptor gene” Proc. Natl. Acad. Sci. USA. 92:6783-7 (1995); de Keyzer et al., “Cloning and characterization of the human V3(V1b) pituitary vasopressin receptor” FEBS Lett. 356:215-20 (1994); Sugimoto et al., “Molecular cloning and functional expression of a cDNA encoding the human V1b vasopressin receptor” J. Biol. Chem. 269:27088-92 (1994)) was inserted into a mammalian cell expression vector PCI-neo (Promega) at EcoR1 site. The recombinant plasmid carrying hV1b cDNA was identified from transformed E. Coli clones and used for the transfection of Chinese hamster ovary cell (CHO-K1, ATCC). Two micrograms of hV1b receptor DNA was introduced into 10^5 CHO cells cultured in 6-well plate, using Fugene-6 mediated transfection technique (Boehringer Mannheim). Twenty-four hrs post transfection, Cells were then cultured under selection of G-418 (0.25 mg/ml) supplemented to the culture medium. Three days later, limited dilution was carried out to obtain single cell clones in 96-well plates. […]
EXAMPLE. […] Samples were counted in a liquid scintillation counter (Beckman LS3801). IC50 and Ki values were calculated using Prism Curve fitting software. […]

human V1a receptor [2] = target: T1, human V1a receptor; assay: Human vasopressin V1a receptor binding assay; details: hV1a cell line, [3H]-AVP
Experimental: EXAMPLE. Human vasopressin V1a receptor binding assay. A cell line expressing the human V1a receptor in CHO cells (henceforth referred to as the hV1a cell line) was obtained from Dr. Michael Brownstein, NIMH, Bethesda, Md., USA. The hV1a cDNA sequence is described by Thibonnier et al., Journal of Biological Chemistry, 269, 3304-3310 (1994), and the expression method was the same as described by Morel et al. (1992). The hV1a cell line was grown in alpha-MEM with 10% fetal bovine serum and 250 ug/ml G418 (Gibco, Grand Island, N.Y., USA). For competitive binding assay, hV1a cells were plated into 6-well culture plate at 1:10 dilution from a confluency flask, and maintained in culture for at least two days. Culture medium was then removed, cells were washed with 2 ml binding buffer (25 mM Hepes, 0.25% BSA, 1×DMEM, PH=7.0). To each well, 990 μl binding buffer containing 1 nM 3H-AVP was added, and followed by 10 μl series diluted Example compounds dissolved in DMSO. […] 100 nM cold AVP (Sigma) was used to assess non-specific binding. Cells were incubated for 45 minutes at 37° C., assay mixture was removed and each well was washed three times with PBS (pH=7.4). 1 ml 2% SDS was added per well and plates were let sit for 30 minutes. The whole content in a well was transferred to a scintillation vial. Each well was rinsed with 0.5 ml PBS which was then added to the corresponding vial. Scintillation fluid (Ecoscint, National Diagnostics, Atlanta, Ga.) was then added at 3 ml per vial. Samples were counted in a liquid scintillation counter (Beckman LS3801). IC50 values were calculated by Prism Curve fitting software.
All of the alkanedioic esters and amides exemplified in the foregoing examples dissolved in DMSO were tested in this assay. Binding curves were generated according to methods described by Thibonnier et al. (1994). [^3H]-AVP was added to the hV1a cell cultures followed by 10-fold dilutions of each test compound.

T1 sequence (P37288 whole entry): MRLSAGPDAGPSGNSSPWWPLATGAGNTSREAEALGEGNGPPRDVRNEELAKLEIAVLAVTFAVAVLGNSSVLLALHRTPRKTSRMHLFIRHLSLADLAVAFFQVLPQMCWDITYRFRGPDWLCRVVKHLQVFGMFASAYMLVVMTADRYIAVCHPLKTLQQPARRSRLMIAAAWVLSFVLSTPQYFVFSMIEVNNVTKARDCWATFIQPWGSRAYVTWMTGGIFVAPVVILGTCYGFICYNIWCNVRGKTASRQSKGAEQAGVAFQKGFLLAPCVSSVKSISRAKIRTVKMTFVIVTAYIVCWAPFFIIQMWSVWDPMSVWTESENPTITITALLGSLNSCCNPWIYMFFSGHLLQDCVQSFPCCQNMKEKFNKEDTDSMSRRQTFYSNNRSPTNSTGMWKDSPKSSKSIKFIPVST
V2, sequence (P30518 whole entry): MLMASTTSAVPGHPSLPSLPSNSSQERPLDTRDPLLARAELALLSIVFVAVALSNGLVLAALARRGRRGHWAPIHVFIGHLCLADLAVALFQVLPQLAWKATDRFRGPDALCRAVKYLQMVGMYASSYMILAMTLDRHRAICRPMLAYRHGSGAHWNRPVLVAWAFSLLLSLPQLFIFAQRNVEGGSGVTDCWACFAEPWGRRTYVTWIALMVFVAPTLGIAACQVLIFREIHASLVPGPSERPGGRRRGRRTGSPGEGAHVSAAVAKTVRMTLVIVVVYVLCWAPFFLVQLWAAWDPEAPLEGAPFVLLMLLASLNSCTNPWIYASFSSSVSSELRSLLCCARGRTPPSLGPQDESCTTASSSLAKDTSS

agonist or antagonist character (inhibition of vasopressin-mediated phosphatidylinositol turnover) (human V1a receptor [1]): vasopressin V1a antagonists
SMILES: O=C(NCc1cccc(C(F)(F)F)c1)[C@H](CCC(=O)N1CCN(CCc2ccccc2)CC1)N1C(=O)[C@@H](N2C(=O)OC[C@@H]2c2ccccc2)[C@H]1C=Cc1ccccc1 (single isomer, unassigned) [Example 35]

agonist or antagonist character (inhibition of vasopressin-mediated phosphatidylinositol turnover) (human V1a receptor [1]): vasopressin V1a antagonists
SMILES: O=C(NCc1cccc(C(F)(F)F)c1)C(CCC(=O)N1CCN(C2CCCCC2)CC1)N1C(=O)C(N2C(=O)OCC2c2ccccc2)C1C=Cc1ccccc1 (single isomer, unassigned) [Example 110]

agonist or antagonist character (inhibition of vasopressin-mediated phosphatidylinositol turnover) (human V1a receptor [1]): vasopressin V1a antagonists
SMILES: O=C(NCc1cccc(C(F)(F)F)c1)C(CC(=O)N1CCC(N2CCCCC2)CC1)N1C(=O)C(N2C(=O)OCC2c2ccccc2)C1C=Cc1ccccc1 (stereo not shown) [Example 44]

agonist or antagonist character (inhibition of vasopressin-mediated phosphatidylinositol turnover) (human V1a receptor [1]): vasopressin V1a antagonists
SMILES: O=C(NCc1cccc(C(F)(F)F)c1)C(CCC(=O)N1CCC(N2CCCCC2)CC1)N1C(=O)C(N2C(=O)OCC2c2ccccc2)C1C=Cc1ccccc1 (stereo not shown) [Example 88]

agonist or antagonist character (inhibition of vasopressin-mediated phosphatidylinositol turnover) (human V1a receptor [1]): vasopressin V1a antagonists
SMILES: O=C(NCc1cccc(C(F)(F)F)c1)C(CC(=O)N1CCC(N2CCCCC2)CC1)N1C(=O)C(N2C(=O)OCC2c2ccccc2)C1C=Cc1ccccc1 (stereo not shown) [Example 133]

T1/2 (Pharmacokinetics): improved | accumulation (Pharmacokinetics): 1.7 fold | Ki (V2): > 1000 nM | Ki (V1b receptor): > 1000 nM
SMILES: C[C@@H](NC(=O)[C@@H](CC(=O)N1CCC(N2CCCCC2)CC1)N1C(=O)[C@@H](N2C(=O)OC[C@@H]2c2ccccc2)[C@H]1/C=C/c1ccccc1)c1ccccc1 [Example 224, 2(R)-[[4-(Piperidinyl)piperidinyl]carbonylmethyl]-2-[3(S)-(4(S)-phenyloxazolidin-2-on-3-yl)-4(R)-(2-styryl)azetidin-2-on-1-yl]acetic acid N—[(R)-α-methylbenzyl]amide]

IC50 (human V1a receptor [2]): 1.86 to 2.13 nM | Ki (human V1a receptor [2]): 1.14 to 1.3 nM | Ki (V2): > 1000 nM | Ki (V1b receptor): > 1000 nM
SMILES: CN(Cc1cccc(C(F)(F)F)c1)C(=O)[C@@H](CC(=O)N1CCC(N2CCCCC2)CC1)N1C(=O)[C@@H](N2C(=O)OC[C@@H]2c2ccccc2)[C@H]1/C=C/c1ccccc1 [Example 225, 2(R)-[[4-(Piperidinyl)piperidinyl]carbonylmethyl]-2-[3(S)-(4(S)-phenyloxazolidin-2-on-3-yl)-4(R)-(2-styryl)azetidin-2-on-1-yl]acetic acid N-methyl-N-(3-trifluoromethylbenzyl)amide]
